Test results as given in patent US9714247B2, “Multiple kinase pathway inhibitors” (Mannkind Corporation, priority 2012, dated 2017).
Like-named read-outs stand apart in the source and are kept apart here.

Key:
Lyn [1] = target: T1, Lyn (Homo sapiens (Human), UniProt P07948); experiment: biochemical
Src [2] = target: T2, Src (Homo sapiens (Human), UniProt P12931); experiment: biochemical
DoHH2 [3] = experiment: CellTiter-Glo proliferation/viability assay; assay type: cell-based, human
BTK = BTK (Homo sapiens (Human), UniProt Q06187)
Ramos = experiment: CellTiter-Glo proliferation/viability assay; assay type: cell-based, human; details: read-out: Ramos EC50
DoHH2 cells = details: treated 24 hours
DoHH2 [4] = experiment: Apoptosis by flow cytometry (Annexin V / 7AAD); assay type: cell-based, human; details: Table 6; for Percent Apoptosis at 2 uM: DOHH2, 2 uM; for Percent Apoptosis at 5 uM: DOHH2, 5 uM
From the text: Activation of Tec family kinases including BTK, and/or Src kinase family members, regulates cell survival and cell death in normal B cells, lymphomas, and solid tumors. Apoptosis is a programmed cell death characterized by specific changes in cell morphology. […] Staurosporine was used as a positive control for apoptosis. […] Table 6 illustrates that several amino naphthyridinones induce significant apoptosis in DoHH2 cells.

Src [5] = target: T2, Src; details: read-out: Src IC50
Lyn [6] = target: T1, Lyn; details: read-out: Lyn IC50
RBL-2H3 cells = experiment: Degranulation (β-hexosaminidase release) colorimetric assay; assay type: cell-based; details: Rattus norvegicus, RBL-2H3, IgE / DNP-BSA
From the text: Crosslinking of IgE receptors leads to induction of intracellular signal transduction pathways and degranulation of mast cells and basophils leading to the release of histamine, serotonin and cytokines that constitutes an allergic reaction. […] One of the factors secreted on induction of degranulation is β-hexosaminidase. A colorimetric assay using 4-nitrophenyl N-acetyl-3-D-glucosaminide (Sigma-Aldrich) as a substrate was used to estimate the amount of enzyme secreted upon degranulation. In brief, RBL-2H3 (ATCC # CRL 2256) cells were plated overnight in the presence of IgE (monoclonal anti-dinitrophenyl antibody from Sigma-Aldrich). The next day, cells were treated with compounds in cell culture media, washed and treated with DNP-BSA for 1 hour (Sigma-Aldrich) in Tyrodes's buffer to induce degranulation. The level of 3-hexosaminidase was analyzed in cell-free supernates and cell lysates and the amount of β-hexosaminidase released was calculated. EC50 values were generated using varying concentrations of inhibitors. […] Thus amino naphthyridinones can be used to inhibit immunologic functions such as degranulation.

[7] = test system: phosphorylation of SFKs in Ramos cells; experiment: SFK phosphorylation (Tyr 416) by flow cytometry; assay type: cell-based, human; details: Homo sapiens, 0.3 uM, flow cytometry, SFK phosphorylated at Tyr 416, read-out: pSRC % inhibition
Method: Ramos cell lysates from stimulated and unstimulated cells were analyzed for the levels of phosphorylated SRC family members. As described in Example 82 (above), cells were pretreated for 2 hours with an amino naphthyridinones and then stimulated with anti-IgM antibody and H2O2, protein lysates were prepared, quantified and used for Western blotting. A commercially available antibody that detects Src phosphorylated at Tyr 416 (Cell Signalling) and may cross-react with other Src family members such as Lyn, Fyn, Lck, Yes and Hck when phosphorylated at equivalent sites was used for Western blot analysis. The molecular weights of SFK family members are quite similar (in the 55-60 kDa range) and different family members cannot be resolved by the conditions used for the Western blot. […] The procedure can be similarly adapted for flow cytometric analysis as with the PLC-γ2 assay in Example 82. Ramos cells were incubated with Compound 1 for 2 hrs in RPMI media with 5% FBS prior to stimulation stimulated with H2O2/anti-IgM/F(Ab) for 10 minutes. Cells were evaluated by FACS analysis using anti-pSRC antibody and FITC-conjugated goat anti-rabbit secondary antibody following overnight storage at 4° C. in BD perm/wash buffer.
Ramos cells were prepared for flow cytometry analysis as described in example 82, and stained with a commercially available antibody that detects SFK phosphorylated at Tyr 416, followed by Alexa Fluor 488 conjugated secondary antibody. […] Thus amino naphthyridinones are useful in the inhibition of the phosphorylation of SFKs.

[8] = test system: PLCγ2 phosphorylation in Ramos cells; experiment: PLCγ2 phosphorylation by flow cytometry; assay type: cell-based, human; details: Homo sapiens, flow cytometry; for inhibition at 0.3 µM: anti-phospho PLCγ2 (Tyr759), read-out: pPLCγ % inhibition; for EC50: anti-phospho PLCγ2 (Tyr1217), four concentrations, read-out: Inhibition of phosphorylation of PLC-γ2 EC50
Outline: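 Ramos cells starved 18 h in 1% FBS, pretreated with inhibitor 2 h, then stimulated with anti-IgM (10 ug/ml final) plus 3.3 mM H2O2 for 2 min, then cross-linking F(ab) (10 ug/ml) plus H2O2 for 8 min. Fixed, permeabilized cells stained with PE anti-phospho-PLCγ2 (Tyr1217 or Tyr759), dead cells gated out; ED50 from geometric mean fluorescence over four inhibitor concentrations.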

[9] = Homo sapiens, DOHH-2, 48 hrs, read-out: DoHH2 EC50
[10] = Homo sapiens, DOHH-2, Table 4, DoHH2 cells, read-out: EC50 (Proliferation)

Sequence of BTK (Q06187 whole entry): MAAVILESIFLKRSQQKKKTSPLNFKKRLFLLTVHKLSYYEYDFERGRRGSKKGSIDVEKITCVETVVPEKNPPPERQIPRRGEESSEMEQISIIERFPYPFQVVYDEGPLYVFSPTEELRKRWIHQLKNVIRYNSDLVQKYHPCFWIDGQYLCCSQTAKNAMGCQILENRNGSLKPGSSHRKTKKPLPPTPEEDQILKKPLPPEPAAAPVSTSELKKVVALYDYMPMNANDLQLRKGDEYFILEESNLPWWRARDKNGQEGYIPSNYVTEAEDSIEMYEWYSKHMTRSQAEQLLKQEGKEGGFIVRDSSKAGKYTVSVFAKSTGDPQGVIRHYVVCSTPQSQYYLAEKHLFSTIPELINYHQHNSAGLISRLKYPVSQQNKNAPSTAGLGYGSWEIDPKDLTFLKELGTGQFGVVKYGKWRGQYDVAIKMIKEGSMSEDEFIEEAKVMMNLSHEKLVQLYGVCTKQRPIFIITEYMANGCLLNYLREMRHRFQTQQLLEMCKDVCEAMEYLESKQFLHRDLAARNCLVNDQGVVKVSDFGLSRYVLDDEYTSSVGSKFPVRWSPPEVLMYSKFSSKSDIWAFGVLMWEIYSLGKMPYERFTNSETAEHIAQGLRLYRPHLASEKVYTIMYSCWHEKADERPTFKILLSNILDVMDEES
T1 sequence (P07948 whole entry): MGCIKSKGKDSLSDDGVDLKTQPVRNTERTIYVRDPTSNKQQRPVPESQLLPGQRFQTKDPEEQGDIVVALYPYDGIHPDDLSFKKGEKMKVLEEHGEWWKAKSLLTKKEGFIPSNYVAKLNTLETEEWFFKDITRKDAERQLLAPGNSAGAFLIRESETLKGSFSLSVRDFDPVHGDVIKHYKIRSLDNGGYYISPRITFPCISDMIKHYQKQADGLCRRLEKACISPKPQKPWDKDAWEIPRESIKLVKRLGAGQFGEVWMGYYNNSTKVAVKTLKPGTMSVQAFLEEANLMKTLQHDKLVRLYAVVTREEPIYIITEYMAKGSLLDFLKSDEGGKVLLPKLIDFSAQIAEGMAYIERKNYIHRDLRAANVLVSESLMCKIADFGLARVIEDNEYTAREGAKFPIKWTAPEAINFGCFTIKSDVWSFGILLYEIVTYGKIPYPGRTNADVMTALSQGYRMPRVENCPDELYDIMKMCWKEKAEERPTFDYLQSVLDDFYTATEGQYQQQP
T2 sequence (P12931 whole entry, looked up): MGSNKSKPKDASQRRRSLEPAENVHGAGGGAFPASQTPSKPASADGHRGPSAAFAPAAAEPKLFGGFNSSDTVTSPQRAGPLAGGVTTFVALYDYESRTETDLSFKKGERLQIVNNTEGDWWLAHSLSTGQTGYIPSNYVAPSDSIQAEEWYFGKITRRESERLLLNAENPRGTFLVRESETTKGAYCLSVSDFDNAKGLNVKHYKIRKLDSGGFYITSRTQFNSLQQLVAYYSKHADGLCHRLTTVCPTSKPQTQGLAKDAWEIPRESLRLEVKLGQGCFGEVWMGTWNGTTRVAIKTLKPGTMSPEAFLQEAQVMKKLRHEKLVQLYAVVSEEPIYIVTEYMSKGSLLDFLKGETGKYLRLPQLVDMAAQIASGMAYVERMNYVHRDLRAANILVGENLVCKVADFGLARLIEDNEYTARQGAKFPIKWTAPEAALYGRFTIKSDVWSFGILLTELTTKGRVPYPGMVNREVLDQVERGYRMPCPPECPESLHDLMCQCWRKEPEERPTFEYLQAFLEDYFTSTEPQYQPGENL

Row | SMILES | IC50 (Lyn [1]) [nM] | IC50 (Src [2]) [nM] | IC50 (BTK; read-out: BTK IC50) [nM] | EC50 (Ramos; Homo sapiens, Ramos, 48 hrs) [nM] | IC50 (Src [5]) [nM] | IC50 (Lyn [6]) [nM] | EC50 (RBL-2H3 cells) [nM] | EC50 (Ramos; Homo sapiens, Ramos, 48 h) [nM] | EC50 [8] [nM] | IC50 (BTK) [nM] | IC50 (Lyn [1]; Lyn IC50) [nM] | EC50 (Ramos; 48 hrs) [nM] | EC50 (DoHH2 [3]; [9]) [nM] | EC50 (DoHH2 [3]; [10]) [nM] | Effect on Cell Cycle (DoHH2 cells) | Percent Apoptosis at 2 uM (DoHH2 [4]) [%] | Percent Apoptosis at 5 uM (DoHH2 [4]) [%] | inhibition at 0.3 µM [7] [%] | inhibition at 0.3 µM [8] [%] | EC50 (DoHH2 [3]; 48 hrs, read-out: DoHH2 EC50) [nM]
1 | CCN(CC)CCOc1ccc(Nc2cc3c(cn2)cc(-c2ccccc2)c(=O)n3C2CC2)nc1 [Compound 27, 1-cyclopropyl-7-(5-(2-(diethylamino)ethoxy)pyridin-2-ylamino)-3-phenyl-1,6-naphthyridin-2(1H)-one] | 100 to 1000 | 100 to 1000 | < 100 | 1000 to 10000 | – | – | – | – | – | – | – | – | < 1000 | < 1000 | G1 Arrest | 37.05 | 54.19 | – | – | –
2 | O=c1c(-c2c(F)cccc2F)cc2cnc(Nc3ccc(F)cn3)cc2n1CCN1CCOCC1 [Compound 133, 3-(2,6-difluorophenyl)-7-((5-fluoropyridin-2-yl)amino)-1-(2-morpholinoethyl)-1,6-naphthyridin-2(1H)-one] | – | – | < 100 | > 10000 | < 100 | < 100 | 5490 | – | – | – | – | – | < 1000 | – | – | – | – | – | – | –
3 | CCN(CC)CCOc1ccc(Nc2cc3c(cn2)cc(C(C)C)c(=O)n3C(C)C)nc1 [Compound 34, 7-[5-(2-Diethylamino-ethoxy)-pyridin-2-ylamino]-1,3-diisopropyl-1H-[1,6]naphthyridin-2-one] | – | – | – | – | < 100 | < 100 | – | 1000 to 10000 | – | – | – | – | – | – | No Arrest | 19.54 | 46.27 | – | – | –
4 | CCn1c(=O)c(-c2ccccc2)cc2cnc(Nc3ccc(N4CCN(C)CC4)cn3)cc21 [Compound 43, 1-Ethyl-7-[5-(4-methyl-piperazin-1-yl)-pyridin-2-ylamino]-3-phenyl-1H-[1,6]naphthyridin-2-one] | – | – | – | 1000 to 10000 | < 100 | < 100 | – | – | 190 | – | – | – | < 1000 | – | – | 27.26 | 29.38 | – | – | –
5 | CC(C)n1c(=O)c(-c2c(F)cccc2F)cc2cnc(Nc3ccc(F)cn3)cc21 [Compound 78, 3-(2,6-difluorophenyl)-7-((5-fluoropyridin-2-yl)amino)-1-isopropyl-1,6-naphthyridin-2(1H)-one] | – | – | – | > 10000 | – | – | > 5000 | – | – | 100 to 1000 | – | – | < 1000 | – | – | – | – | 8 | 55 | –
6 | CCN(CC)CCOc1ccc(Nc2cc3c(cn2)cc(-c2ccccc2)c(=O)n3CCOC)nc1 [Compound 24, 7-(5-(2-(diethylamino)ethoxy)pyridin-2-ylamino)-1-(2-methoxyethyl)-3-phenyl-1,6-naphthyridin-2(1H)-one] | – | – | < 100 | 1000 to 10000 | < 100 | < 100 | – | – | – | – | – | – | < 1000 | – | – | 34.76 | 46.4 | – | – | –
7 | CCn1c(=O)c(-c2c(F)cccc2F)cc2cnc(Nc3ccc(F)cn3)cc21 [Compound 75, 3-(2,6-difluorophenyl)-1-ethyl-7-((5-fluoropyridin-2-yl)amino)-1,6-naphthyri-din-2 (1H)-one] | – | 100 to 1000 | < 100 | – | – | < 100 | – | 1000 to 10000 | – | – | – | – | < 1000 | < 1000 | G1 Arrest | 35.66 | 39.47 | – | – | –
8 | O=c1c(-c2c(F)cccc2F)cc2cnc(Nc3ccc(F)cn3)cc2n1C1CCOC1 (single isomer, unassigned) [Compound 142, (R or S)-3-(2,6-difluorophenyl)-7-((5-fluoropyridin-2-yl)amino)-1-(tetrahydrofuran-3-yl)-1,6-naphthyridin-2(1H)-one] | – | – | – | – | < 100 | – | > 5000 | – | – | – | < 100 | 1000 to 10000 | – | – | – | – | – | – | – | < 1000
9 | CN1CC[C@H](n2c(=O)c(-c3c(F)cccc3F)cc3cnc(Nc4ccc(F)cn4)cc32)C1 [Compound 150, (S)-3-(2,6-difluorophenyl)-7-((5-fluoropyridin-2-yl)amino)-1-(1-methylpyrrolidin-3-yl)-1,6-naphthyridin-2(1H)-one] | – | 100 to 1000 | – | – | – | – | > 5000 | > 10000 | – | – | 100 to 1000 | – | 1000 to 10000 | – | – | – | – | – | – | –

Now from value to compound, other results behind:

Row | IC50 (Lyn [1]) [nM] | IC50 (Src [2]) [nM] | IC50 (BTK; read-out: BTK IC50) [nM] | EC50 (Ramos; Homo sapiens, Ramos, 48 hrs) [nM] | IC50 (Src [5]) [nM] | IC50 (Lyn [6]) [nM] | EC50 (RBL-2H3 cells) [nM] | EC50 (Ramos; Homo sapiens, Ramos, 48 h) [nM] | EC50 [8] [nM] | IC50 (BTK) [nM] | IC50 (Lyn [1]; Lyn IC50) [nM] | EC50 (Ramos; 48 hrs) [nM] | SMILES | EC50 (DoHH2 [3]; [9]) [nM] | EC50 (DoHH2 [3]; [10]) [nM] | Effect on Cell Cycle (DoHH2 cells) | Percent Apoptosis at 2 uM (DoHH2 [4]) [%] | Percent Apoptosis at 5 uM (DoHH2 [4]) [%] | inhibition at 0.3 µM [7] [%] | inhibition at 0.3 µM [8] [%] | EC50 (DoHH2 [3]; 48 hrs, read-out: DoHH2 EC50) [nM]
10 | – | – | < 100 | 1000 to 10000 | < 100 | < 100 | 950 | – | – | – | – | – | CCN(CC)CCOc1ccc(Nc2cc3c(cn2)cc(-c2c(Cl)cccc2Cl)c(=O)n3CC)nc1 [Compound 101, 3-(2,6-dichlorophenyl)-7-((5-(2-(diethylamino)ethoxy)pyridin-2-yl)amino)-1-ethyl-1,6-naphthyridin-2(1H)-one] | < 1000 | – | – | – | – | 70 | 92 | –
11 | – | 100 to 1000 | < 100 | – | – | – | – | 1000 to 10000 | – | – | 100 to 1000 | – | CCN(CC)CCOc1ccc(Nc2cc3c(cn2)cc(-c2ccccc2)c(=O)n3C(C)C)nc1 [Compound 22, 7-(5-(2-(diethylamino)ethoxy)pyridin-2-ylamino)-1-isopropyl-3-phenyl-1,6-naphthyridin-2(1H)-one] | < 1000 | < 1000 | G1 Arrest | 21.68 | 25.8 | – | – | –
12 | 1000 to 5000 | 1000 to 5000 | – | – | – | – | – | 1000 to 10000 | 280 | – | – | – | CCN(CC)CCOc1ccc(Nc2cc3c(cn2)cc(-c2ccccc2)c(=O)n3C2CCC2)nc1 [Compound 25, 1-cyclobutyl-7-(5-(2-(diethylamino)ethoxy)pyridin-2-ylamino)-3-phenyl-1,6-naphthyridin-2(1H)-one] | < 1000 | < 1000 | G1 Arrest | 26.94 | 20.29 | 26 | 61 | –
13 | 100 to 1000 | – | 100 to 1000 | 1000 to 10000 | < 100 | 100 to 1000 | – | – | – | 100 to 1000 | – | – | CCN(CC)CCOc1ccc(Nc2cc3c(cn2)cc(-c2ccccc2)c(=O)n3C2CCN(C)CC2)nc1 [Compound 16, 7-((5-(2-(diethylamino)ethoxy)pyridin-2-yl)amino)-1-(1-methylpiperidin-4-yl)-3-phenyl-1,6-naphthyridin-2(1H)-one] | < 1000 | < 1000 | G1 Arrest | 32.57 | 58.99 | -1 | 46 | –
14 | – | 100 to 1000 | – | – | – | – | > 5000 | > 10000 | – | – | 100 to 1000 | – | CN1CC[C@@H](n2c(=O)c(-c3c(F)cccc3F)cc3cnc(Nc4ccc(F)cn4)cc32)C1 [Compound 152, (R)-3-(2,6-difluorophenyl)-7-((5-fluoropyridin-2-yl)amino)-1-(1-methylpyrrolidin-3-yl)-1,6-naphthyridin-2(1H)-one] | < 1000 | – | – | – | – | – | – | –
